Data reported in PubChem BioAssay AID248 (DTP/NCI, 2004).
Where “and” joins values, the source holds several entries; their conditions need not be identical. Identical values can stand only once. Inconclusive results and toxic doses are left out. Rule as the data show it: active = T/C of 150% or more; inactive = T/C below 125%.

Test system: L1210 leukemia ip in BDF1 mice, survival T/C
Assay: NCI In Vivo Anticancer Drug Screen. Data for tumor model L1210 Leukemia (intraperitoneal) in B6D2F1 (BDF1) mice
Conditions: endpoint: mean survival time, higher = longer survival
How it was run: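 Survival endpoint. Drug-treated group vs vehicle group, expressed as T divided by C. Tumor passaged by transplantation.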

[1] = dose: 100.0 mg/kg/injection, schedule: Q01DX001 (ip), vehicle: other
[2] = dose: 200.0 mg/kg/injection, schedule: Q01DX001 (ip), vehicle: other
[3] = dose: 100.0 mg/kg/injection, schedule: Q04DX003 (ip), vehicle: Klucel (hydroxypropylcellulose) (HPC)
[4] = dose: 200.0 mg/kg/injection, schedule: Q04DX003 (ip), vehicle: Klucel (hydroxypropylcellulose) (HPC)
[5] = dose: 400.0 mg/kg/injection, schedule: Q04DX003 (ip), vehicle: Klucel (hydroxypropylcellulose) (HPC)
[6] = dose: 50.0 mg/kg/injection, schedule: Q01DX001 (ip), vehicle: carboxymethylcellulose (CMC)
[7] = dose: 100.0 mg/kg/injection, schedule: Q01DX001 (ip), vehicle: carboxymethylcellulose (CMC)
[8] = dose: 200.0 mg/kg/injection, schedule: Q01DX001 (ip), vehicle: carboxymethylcellulose (CMC)
[9] = dose: 100.0 mg/kg/injection, schedule: Q04DX003 (ip), vehicle: saline with Tween-80
[10] = dose: 200.0 mg/kg/injection, schedule: Q04DX003 (ip), vehicle: saline with Tween-80
[11] = dose: 25.0 mg/kg/injection, schedule: Q04DX003 (ip), vehicle: Klucel (hydroxypropylcellulose) (HPC)
[12] = dose: 50.0 mg/kg/injection, schedule: Q04DX003 (ip), vehicle: Klucel (hydroxypropylcellulose) (HPC)
[13] = dose: 30.0 mg/kg/injection, schedule: Q01DX Z (ip), vehicle: saline
[14] = dose: 100.0 mg/kg/injection, schedule: Q01DX009 (ip), vehicle: Klucel (hydroxypropylcellulose) (HPC)
[15] = dose: 200.0 mg/kg/injection, schedule: Q01DX009 (ip), vehicle: Klucel (hydroxypropylcellulose) (HPC)
[16] = dose: 400.0 mg/kg/injection, schedule: Q01DX009 (ip), vehicle: Klucel (hydroxypropylcellulose) (HPC)
[17] = dose: 100.0 mg/kg/injection, schedule: Q04DX002 (ip), vehicle: Klucel (hydroxypropylcellulose) (HPC)
[18] = dose: 200.0 mg/kg/injection, schedule: Q04DX002 (ip), vehicle: Klucel (hydroxypropylcellulose) (HPC)
[19] = dose: 400.0 mg/kg/injection, schedule: Q04DX002 (ip), vehicle: Klucel (hydroxypropylcellulose) (HPC)
[20] = dose: 50.0 mg/kg/injection, schedule: Q01DX009 (ip), vehicle: saline
[21] = dose: 100.0 mg/kg/injection, schedule: Q01DX009 (ip), vehicle: saline

Measured: T/C

CC1(C)C2CCC1(C)C(O)C2=O (stereo not drawn)
inactive: dose: 75.0 mg/kg/injection, schedule: Q01DX009 (ip), vehicle: saline 95 % of control | dose: 150.0 mg/kg/injection, schedule: Q01DX009 (ip), vehicle: saline 92 % of control | dose: 300.0 mg/kg/injection, schedule: Q01DX009 (ip), vehicle: saline 95 % of control

Cc1nc2cnc(N)nc2nc1C
inactive: dose: 16.0 mg/kg/injection, schedule: Q01DX Z (ip), vehicle: methylcellulose (MC) 97 % of control | dose: 31.0 mg/kg/injection, schedule: Q01DX Z (ip), vehicle: methylcellulose (MC) 97 % of control | dose: 62.0 mg/kg/injection, schedule: Q01DX Z (ip), vehicle: methylcellulose (MC) 109 % of control | [1] 96 % of control | dose: 125.0 mg/kg/injection, schedule: Q01DX Z (ip), vehicle: methylcellulose (MC) 89 % of control and 90 % of control | [2] 101 % of control | dose: 250.0 mg/kg/injection, schedule: Q01DX Z (ip), vehicle: methylcellulose (MC) 91 % of control | dose: 400.0 mg/kg/injection, schedule: Q01DX001 (ip), vehicle: other 98 % of control | dose: 500.0 mg/kg/injection, schedule: Q01DX Z (ip), vehicle: methylcellulose (MC) 93 % of control

Cc1c(C)c2c(c(C)c1O)SC(CC(=O)O)C(=O)O2 (stereo not drawn)
inactive: [3] 100 % of control | [4] 100 % of control | [5] 100 % of control

NC(=O)Nc1ccc2c(c1)Cc1ccccc1-2
inactive: [6] 100 % of control | [7] 96 % of control | [8] 100 % of control | dose: 400.0 mg/kg/injection, schedule: Q01DX001 (ip), vehicle: carboxymethylcellulose (CMC) 102 % of control

c1ccc(C2=C([P+](c3ccccc3)(c3ccccc3)c3ccccc3)CCO2)cc1
inactive: dose: 3.0 mg/kg/injection, schedule: Q04DX003 (ip), vehicle: saline 102 % of control | dose: 3.12 mg/kg/injection, schedule: Q01DX009 (ip), vehicle: saline 117 % of control | dose: 6.0 mg/kg/injection, schedule: Q01DX001 (ip), vehicle: saline 108 % of control | dose: 6.0 mg/kg/injection, schedule: Q04DX003 (ip), vehicle: saline 117 % of control | dose: 6.25 mg/kg/injection, schedule: Q01DX009 (ip), vehicle: saline 109 % of control | dose: 12.0 mg/kg/injection, schedule: Q01DX001 (ip), vehicle: saline 108 % of control | dose: 12.0 mg/kg/injection, schedule: Q04DX003 (ip), vehicle: saline 101 % of control and 107 % of control | dose: 12.5 mg/kg/injection, schedule: Q01DX009 (ip), vehicle: saline 92 % of control | dose: 25.0 mg/kg/injection, schedule: Q01DX001 (ip), vehicle: saline 102 % of control

CCOC(=O)c1cnc(SCc2ccccc2)nc1Nc1ccccc1Cl
inactive: [9] 94 % of control | [10] 88 % of control

CC(=O)N(c1ccncc1)c1ccc(NC(=O)c2ccc(N3C(=O)c4ccccc4C3=O)cc2[N+](=O)[O-])cc1
inactive: dose: 25.0 mg/kg/injection, schedule: Q04DX002 (ip), vehicle: saline with Tween-80 93 % of control and 102 % of control | dose: 400.0 mg/kg/injection, schedule: Q04DX002 (ip), vehicle: saline with Tween-80 96 % of control and 88 % of control

Cc1ccccc1CN1CCN(CCOC(c2ccccc2)c2ccccc2Cl)CC1 (stereo not drawn)
inactive: dose: 12.5 mg/kg/injection, schedule: Q01DX009 (ip), vehicle: Klucel (hydroxypropylcellulose) (HPC) 97 % of control | dose: 25.0 mg/kg/injection, schedule: Q01DX009 (ip), vehicle: Klucel (hydroxypropylcellulose) (HPC) 97 % of control | [11] 107 % of control | dose: 50.0 mg/kg/injection, schedule: Q01DX009 (ip), vehicle: Klucel (hydroxypropylcellulose) (HPC) 102 % of control | [12] 100 % of control | [3] 105 % of control | [4] 100 % of control

CCCCN(CCCC)c1ccc(C(=O)O)cc1
inactive: dose: 100.0 mg/kg/injection, schedule: Q01DX009 (ip), vehicle: saline with Tween-80 100 % of control | [9] 100 % of control | dose: 200.0 mg/kg/injection, schedule: Q01DX009 (ip), vehicle: saline with Tween-80 102 % of control | [10] 98 % of control

CC(N)C(=O)NCCCl (stereo not drawn)
inactive: dose: 10.0 mg/kg/injection, schedule: Q01DX Z (ip), vehicle: saline 91 % of control | [13] 104 % of control | dose: 100.0 mg/kg/injection, schedule: Q01DX Z (ip), vehicle: saline 91 % of control | dose: 300.0 mg/kg/injection, schedule: Q01DX Z (ip), vehicle: saline 93 % of control

CC1(CCCc2ccc([N+](=O)[O-])cc2)N=C(N)N=C(N)N1c1ccccc1 (stereo not drawn)
inactive: [11] 103 % of control | [12] 100 % of control | [3] 121 % of control

Cc1cc(/C=N/NC(=O)c2ccccc2NC(=O)c2ccccc2Cl)ccc1O
inactive: [14] 88 % of control | [15] 92 % of control | [16] 86 % of control

Oc1ccccc1C=NCCN=Cc1ccccc1O.[Ni]
inactive: dose: 88.0 mg/kg/injection, schedule: Q01DX001 (ip), vehicle: other 109 % of control | [1] 100 % of control | dose: 133.0 mg/kg/injection, schedule: Q01DX001 (ip), vehicle: other 107 % of control | [2] 108 % of control

CC(=O)OC1CCC2(C)C(=CCC3C2CCC2(C)C3CC3C(c4ccccc4)=NN(c4ccccc4)C32C(C)=O)C1 (stereo not drawn)
inactive: [17] 92 % of control | [18] 103 % of control | [19] 92 % of control

c1ccc2c(c1)CC1Sc3ccccc3N=C21 (stereo not drawn)
inactive: [9] 103 % of control | [10] 95 % of control

ClC/C=[CH]/[Sn]([c]1ccccc1)([c]1ccccc1)[c]1ccccc1
inactive: [20] 112 % of control | [21] 116 % of control

Cc1ccc(S(=O)(=O)N(Cc2cccc([N+](=O)[O-])c2)c2ccc(C(=O)O)cc2)cc1
inactive: [17] 91 % of control | [18] 98 % of control | [19] 102 % of control

CC(O)C[N+](=O)[O-] (stereo not drawn)
inactive: [20] 103 % of control | [21] 98 % of control | dose: 200.0 mg/kg/injection, schedule: Q01DX009 (ip), vehicle: saline 106 % of control

CC(=O)OC1CCCC23CC(CC12)C(C)(C)C3Br (stereo not drawn)
inactive: [14] 95 % of control | [3] 97 % of control | [15] 100 % of control | [4] 93 % of control | [16] 97 % of control | [5] 95 % of control

COc1ccc2c(c1)CCC1=C2CCC2C1C(=O)CCC21OCCCO1 (stereo not drawn)
inactive: [3] 100 % of control | [4] 96 % of control | [5] 96 % of control

O=C(Nc1ccc(C2=NCCN2)cc1)C(=O)Nc1ccc(C2=NCCN2)cc1
inactive: dose: 15.0 mg/kg/injection, schedule: Q01DX Z (ip), vehicle: saline 101 % of control | [13] 118 % of control | dose: 60.0 mg/kg/injection, schedule: Q01DX Z (ip), vehicle: saline 124 % of control

COc1c2c(c3c(c1OC)c(=O)c1ccccc1n3C)OCO2
inactive: [6] 96 % of control | [7] 93 % of control | [8] 107 % of control | dose: 300.0 mg/kg/injection, schedule: Q01DX001 (ip), vehicle: carboxymethylcellulose (CMC) 102 % of control

C1CCc2c(c3c(c4c2CCCC4)CCCC3)C1
inactive: [17] 100 % of control | [18] 93 % of control | [19] 97 % of control

CCCCC(CC)C(=O)CC(C)=O (stereo not drawn)
inactive: dose: 50.0 mg/kg/injection, schedule: Q01DX001 (ip), vehicle: saline 103 % of control | dose: 100.0 mg/kg/injection, schedule: Q01DX001 (ip), vehicle: saline 95 % of control | dose: 200.0 mg/kg/injection, schedule: Q01DX001 (ip), vehicle: saline 103 % of control | dose: 400.0 mg/kg/injection, schedule: Q01DX001 (ip), vehicle: saline 97 % of control
